According to patent US9670250B2, “Alpha-helical peptidomimetic inhibitors and methods using same” (The Trustees of the University of Pennsylvania, priority 2012, dated 2017):
Starred links: 1 amine or outer side, 2 acyl side, 3 side chain; linkers in the order of their positions; H or OH if unused. Positions of bridges follow the written chain, without caps; N, C: chain ends. Residues, ends and D or L forms follow the SMILES beside them. mXylylene = c1cc(C[*:1])cc(C[*:2])c1

Experiments:
Cathepsin S = Cathepsin S (Homo sapiens, UniProt P25774); assay: in vitro fluorescence-based protease inhibition assay, cathepsin S; format: biochemical
Chain of Cathepsin S (P25774 115-331, species assumed): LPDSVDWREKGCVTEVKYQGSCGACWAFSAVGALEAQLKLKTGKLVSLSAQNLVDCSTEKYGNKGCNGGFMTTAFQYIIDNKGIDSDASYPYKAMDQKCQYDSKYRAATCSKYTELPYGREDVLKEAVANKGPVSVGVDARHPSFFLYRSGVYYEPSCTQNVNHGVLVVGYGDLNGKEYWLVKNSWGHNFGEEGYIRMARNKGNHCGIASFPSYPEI
From the text: (§1) Thus, the present invention includes a series of potent and highly specific α-helical inhibitors for papain family cysteine proteases. […] These short α-helical peptidomimetic inhibitors are modeled after the natural pro-domain sequence but contain a cysteine substitution at specific residues in i,i+4 positions, as shown in FIG. 2B. These cysteine residues are used for stabilization of the helix utilizing an appropriate linker (Muppidi, et al., 2011, Chem Commun (Camb) 47:9396-9398). After synthesis, each inhibitor was tested against its respective protease using an in vitro fluorescence-based assay. For each enzyme, at least one inhibitor was identified that is relatively potent and highly specific for its individual protease. These inhibitors can be modified or otherwise optimized to attain higher potency and selectivity through identification of key interactions between the inhibitor and the active site amino acid residues. Such optimization involves visual examination of the protease crystal structure, and substitution with either non-natural or natural amino acids to exploit possible crucial non-covalent protein ligand interactions, such as hydrogen bond, electrostatic, hydrophobic, and Van der Waals interactions.

Calpain-1 = Calpain-1 (Homo sapiens, UniProt P07384); assay: Ki (µM) (Calpain)
From the text: Table printed on a drawing sheet, FIGURES 2A & 2B
Head of the field: Ki (µM) (Calpain)
The patent's description of the figure: FIG. 2, comprising FIGS. 2A-2C, illustrate inhibitors of the present invention. FIG. 2A depicts a list of parent and lead cysteine protease inhibitors and their Ki values The bold ‘C’ represents the cysteine linked at the i,i+4 position. […] FIG. 2B is a schematic representation of linked helical peptidomimetics. α,α′-Dibromo-meta-xylene is the i,i+4 linker. FIG. 2C illustrates circular dichroism spectra of unlinked (middle) and linked (right) peptidomimetics (key at left) in 50 mM Tris-HCl buffer (pH 7.5) and 40% trifluoroethanol (TFE). α-Helical stabilization substantially increases helicity in solution.
First copying reader's note: Bold C residues and underlined sequences mark the linked (stapled) peptides; the meanings of N/A and NT are not printed on the sheet.

Cathepsin L = Cathepsin L (Homo sapiens, UniProt P07711); assay: in vitro fluorescence-based protease inhibition assay, cathepsin L; format: biochemical
Chain of Cathepsin L (P07711 114-333, species assumed): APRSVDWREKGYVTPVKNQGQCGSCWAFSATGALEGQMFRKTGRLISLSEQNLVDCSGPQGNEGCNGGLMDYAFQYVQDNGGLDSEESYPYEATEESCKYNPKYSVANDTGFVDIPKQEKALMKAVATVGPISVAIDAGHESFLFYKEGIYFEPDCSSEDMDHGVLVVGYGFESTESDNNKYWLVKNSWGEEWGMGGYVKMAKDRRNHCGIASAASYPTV
From the text: as §1

Cathepsin K = molecular target: T1, Cathepsin K (Homo sapiens, UniProt P43235); assay: in vitro fluorescence-based protease inhibition assay, cathepsin K; format: biochemical
T1 sequence (P43235 115-329): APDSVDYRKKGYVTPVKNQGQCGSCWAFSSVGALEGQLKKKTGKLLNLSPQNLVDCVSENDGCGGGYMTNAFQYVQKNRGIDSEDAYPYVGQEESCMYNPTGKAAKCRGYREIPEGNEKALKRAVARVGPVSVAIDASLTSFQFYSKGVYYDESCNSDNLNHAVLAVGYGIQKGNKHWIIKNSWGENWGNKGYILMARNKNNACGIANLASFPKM
From the text: as §1

Calpain (Calpain-1) = molecular target: T2, Calpain (Calpain-1) (Homo sapiens, UniProt P07384); assay: in vitro fluorescence-based protease inhibition assay, calpain; format: biochemical
T2 sequence (P07384 1-714): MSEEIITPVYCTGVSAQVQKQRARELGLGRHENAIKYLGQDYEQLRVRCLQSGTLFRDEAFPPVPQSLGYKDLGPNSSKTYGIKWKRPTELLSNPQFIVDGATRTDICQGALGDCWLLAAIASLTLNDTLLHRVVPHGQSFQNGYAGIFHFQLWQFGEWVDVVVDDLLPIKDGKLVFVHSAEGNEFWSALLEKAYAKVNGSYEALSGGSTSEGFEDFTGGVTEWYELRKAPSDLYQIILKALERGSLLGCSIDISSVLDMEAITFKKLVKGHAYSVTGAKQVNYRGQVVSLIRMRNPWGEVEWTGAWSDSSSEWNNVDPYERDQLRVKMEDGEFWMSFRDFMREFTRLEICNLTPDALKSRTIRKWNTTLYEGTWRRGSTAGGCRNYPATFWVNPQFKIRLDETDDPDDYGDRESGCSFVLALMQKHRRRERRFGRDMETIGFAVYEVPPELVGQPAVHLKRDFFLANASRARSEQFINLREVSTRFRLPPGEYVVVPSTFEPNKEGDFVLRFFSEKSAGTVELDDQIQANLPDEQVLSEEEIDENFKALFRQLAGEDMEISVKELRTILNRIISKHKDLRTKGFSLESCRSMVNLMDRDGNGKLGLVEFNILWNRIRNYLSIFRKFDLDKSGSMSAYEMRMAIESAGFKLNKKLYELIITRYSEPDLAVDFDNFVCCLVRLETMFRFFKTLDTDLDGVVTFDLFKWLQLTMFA
T2 sequence (P04632 1-268 partner): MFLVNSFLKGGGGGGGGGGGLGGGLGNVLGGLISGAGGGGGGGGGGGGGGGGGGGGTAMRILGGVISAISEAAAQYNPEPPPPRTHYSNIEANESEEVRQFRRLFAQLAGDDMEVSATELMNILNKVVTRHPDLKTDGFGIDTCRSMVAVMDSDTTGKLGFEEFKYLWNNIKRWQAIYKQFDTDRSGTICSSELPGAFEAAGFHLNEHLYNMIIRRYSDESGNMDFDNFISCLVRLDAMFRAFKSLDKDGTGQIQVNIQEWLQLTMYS
From the text: as §1

[1] = Table 2, cathepsin S inhibitors
[2] = Table 3, cathepsin K inhibitors

CSCC[C@H](NC(=O)[C@H](CC(C)C)NC(=O)[C@H](CO)NC(=O)[C@H](CC(N)=O)NC(=O)[C@H](CCSC)NC(=O)[C@@H](NC(=O)[C@H](CCC(=O)O)NC(=O)[C@H](CCC(=O)O)NC(=O)[C@H](CO)NC(=O)[C@@H](N)[C@@H](C)O)C(C)C)C(=O)N[C@@H](CO)C(=O)N[C@@H](CO)C(=O)O [SEQ ID NO:14, TSEEVMNSLMSS, reference compound] (H-TSEEVMNSLMSS-OH) was tested, and the “cathepsin S inhibitory activity, in words” value (Cathepsin S) was “did not demonstrate any intrinsic inhibitory activity”.
CC[C@H](C)[C@H](N)C(=O)N1CCC[C@H]1C(=O)N1CCC[C@H]1C(=O)N[C@@H](CCCCN)C(=O)N[C@@H](Cc1ccc(O)cc1)C(=O)N[C@@H](CCCNC(=N)N)C(=O)N[C@@H](CCC(=O)O)C(=O)N[C@@H](CC(C)C)C(=O)N[C@@H](CC(C)C)C(=O)N[C@@H](C)C(=O)O [SEQ ID NO:62, IPPKYRELLA] (H-IPPKYRELLA-OH; N-terminus and C-terminus assumed) was tested, and the Ki (Calpain-1) was > 100 µM.
For CSCC[C@@H]1NC(=O)[C@H](CC(C)C)NC(=O)[C@H](CO)NC(=O)[C@@H](NC(=O)[C@@H](NC(=O)[C@H](Cc2c[nH]c3ccccc23)NC(=O)[C@H](CCC(=O)O)NC(=O)[C@H](CO)NC(=O)[C@@H](N)[C@@H](C)O)C(C)C)CSCc2cccc(c2)CSC[C@@H](C(=O)N[C@@H](CO)C(=O)O)NC1=O [compound 20] (H-TSEWVCSLMCS-OH; linker 6-10 via mXylylene; N-terminus and C-terminus assumed), the Ki (Cathepsin L; [1]) was 57.1 ± 1.24 µM, the Ki (Cathepsin K; [1]) was > 100 µM and the Ki (Calpain (Calpain-1); [1]) was > 100 µM.
With CSCC[C@H](NC(=O)[C@H](CCCCN)NC(=O)[C@@H]1CSCc2cccc(c2)CSC[C@H](NC(=O)[C@@H](N)CO)C(=O)N[C@@H](CCC(=O)O)C(=O)N[C@@H](CO)C(=O)N[C@@H](C(C)C)C(=O)N1)C(=O)N[C@H](C(=O)NCC(=O)N[C@@H](CC(C)C)C(=O)O)[C@@H](C)O [compound 37] (H-SCESVCKMTGL-OH; linker 2-6 via mXylylene; N-terminus and C-terminus assumed) the Ki (Cathepsin L; [2]) was > 100 µM, the Ki (Cathepsin K; [2]) was > 100 µM and the Ki (Calpain (Calpain-1); [2]) was > 100 µM.
With CC[C@H](C)[C@H](NC(=O)[C@@H](NC(=O)[C@@H](NC(=O)[C@H](CCC(=O)O)NC(=O)[C@H](CCCNC(=N)N)NC(=O)[C@H](CCCCN)NC(=O)CNC(=O)[C@@H](N)CC(C)C)C(C)C)[C@@H](C)O)C(=O)N1CCC[C@H]1C(=O)N1CCC[C@H]1C(=O)N[C@@H](CCCCN)C(=O)N[C@@H](Cc1ccc(O)cc1)C(=O)N[C@H]1CSCc2cccc(c2)CSC[C@@H](C(=O)O)NC(=O)[C@H](CC(C)C)NC(=O)[C@H](CC(C)C)NC(=O)[C@H](CCC(=O)O)NC1=O [compound 67] (H-LGKREVTIPPKYCELLC-OH; linker 13-17 via mXylylene; N-terminus and C-terminus assumed) the Ki (Cathepsin L; Table 4, calpain inhibitors) was > 100 µM, the Ki (Cathepsin K; Table 4, calpain inhibitors) was > 100 µM and the Ki (Calpain (Calpain-1); Table 4, calpain inhibitors) was 3.6 ± 1.7 µM.
With CC[C@H](C)[C@H](NC(=O)[C@@H](NC(=O)[C@@H](NC(=O)[C@@H](N)CCC(=O)O)C(C)C)[C@@H](C)O)C(=O)N1CCC[C@H]1C(=O)N1CCC[C@H]1C(=O)N[C@@H](CCCCN)C(=O)N[C@@H](Cc1ccc(O)cc1)C(=O)N[C@H]1CSCc2cccc(c2)CSC[C@@H](C(=O)O)NC(=O)[C@H](CC(C)C)NC(=O)[C@H](CC(C)C)NC(=O)[C@H](CCC(=O)O)NC1=O [compound 69] (H-EVTIPPKYCELLC-OH; linker 9-13 via mXylylene; N-terminus and C-terminus assumed) the Ki (Cathepsin K; Table 4, calpain inhibitors) was > 100 µM and the Ki (Calpain (Calpain-1); Table 4, calpain inhibitors) was 5.3 ± 1.9 µM.
For CC(C)C[C@@H]1NC(=O)[C@H](CC(C)C)NC(=O)[C@H](CCC(=O)O)NC(=O)[C@@H](NC(=O)[C@H](Cc2ccc(O)cc2)NC(=O)[C@H](CCCCN)NC(=O)[C@@H]2CCCN2C(=O)[C@@H]2CCCN2C(=O)[C@H](C)N)CSCc2cccc(c2)CSC[C@@H](C(=O)O)NC1=O [compound 72] (H-APPKYCELLC-OH; linker 6-10 via mXylylene; N-terminus and C-terminus assumed), the Ki (Cathepsin L; Table 4, calpain inhibitors) was 12.5 ± 1.2 µM and the Ki (Calpain (Calpain-1); Table 4, calpain inhibitors) was 65.6 ± 20.5 µM.
For CC(C)C[C@@H]1NC(=O)[C@H](CC(C)C)NC(=O)[C@H](CCC(=O)O)NC(=O)[C@@H](NC(=O)[C@H](Cc2ccc(O)cc2)NC(=O)[C@H](CCCCN)NC(=O)[C@@H]2CCCN2C(=O)[C@@H]2CCCN2C(=O)[C@@H](N)CC(C)C)CSCc2cccc(c2)CSC[C@@H](C(=O)O)NC1=O [compound 74] (H-LPPKYCELLC-OH; linker 6-10 via mXylylene; N-terminus and C-terminus assumed), the Ki (Cathepsin K; Table 4, calpain inhibitors) was > 100 µM and the Ki (Calpain (Calpain-1); Table 4, calpain inhibitors) was 11 ± 3.6 µM.
In the case of CC[C@H](C)[C@H](N)C(=O)N1CCC[C@H]1C(=O)N1CCC[C@H]1C(=O)N[C@@H](CCCNC(=N)N)C(=O)N[C@@H](Cc1ccc(O)cc1)C(=O)N[C@H]1CSCc2cccc(c2)CSC[C@@H](C(=O)O)NC(=O)[C@H](CC(C)C)NC(=O)[C@H](CC(C)C)NC(=O)[C@H](CCC(=O)O)NC1=O [compound 80] (H-IPPRYCELLC-OH; linker 6-10 via mXylylene; N-terminus and C-terminus assumed), the Ki (Cathepsin K; Table 4, calpain inhibitors) is reported as > 100 µM and the Ki (Calpain (Calpain-1); Table 4, calpain inhibitors) is reported as 5.3 ± 2 µM.
With CC[C@H](C)[C@H](N)C(=O)N1CCC[C@H]1C(=O)N1CCC[C@H]1C(=O)N[C@@H](CCCCN)C(=O)N[C@@H](Cc1ccc(O)cc1)C(=O)N[C@H]1CSCc2cccc(c2)CSC[C@@H](C(=O)O)NC(=O)[C@H](CC(C)C)NC(=O)[C@H](CC(C)C)NC(=O)[C@H](C)NC1=O [compound 84] (H-IPPKYCALLC-OH; linker 6-10 via mXylylene; N-terminus and C-terminus assumed) the Ki (Cathepsin L; Table 4, calpain inhibitors) was 12.5 ± 1.1 µM and the Ki (Calpain (Calpain-1); Table 4, calpain inhibitors) was 28.9 ± 9.1 µM.
In the case of CC[C@H](C)[C@H](N)C(=O)N1CCC[C@H]1C(=O)N1CCC[C@H]1C(=O)N[C@@H](CCCCN)C(=O)N[C@@H](Cc1ccc(O)cc1)C(=O)N[C@H]1CSCc2cccc(c2)CSC[C@@H](C(=O)O)NC(=O)[C@H](CC(C)C)NC(=O)[C@H](CCC(N)=O)NC(=O)[C@H](CCC(=O)O)NC1=O [compound 85] (H-IPPKYCEQLC-OH; linker 6-10 via mXylylene; N-terminus and C-terminus assumed), the Ki (Cathepsin K; Table 4, calpain inhibitors) is reported as > 100 µM and the Ki (Calpain (Calpain-1); Table 4, calpain inhibitors) is reported as 11 ± 3.6 µM.
SECFRQCMNGF [SEQ ID NO:2] was tested, and the “cathepsin L inhibitory activity, in words” value (Cathepsin L) was “low activity”.
“SEEFRQVMNGF [SEQ ID NO:1, reference compound]” was tested, and the “cathepsin L inhibitory activity, in words” value (Cathepsin L) was “no inhibitory activity”.
In the case of TSEEVCSLMCS [SEQ ID NO:16], the “potency on cathepsin L over cathepsin S, in words” value (Cathepsin L) is reported as “much more potent inhibitor of cathepsin L over cathepsin S”, the “effect on cathepsin K (inhibition or activation), in words” value (Cathepsin K) is reported as “did not inhibit” and the “cathepsin S inhibitory activity, in words” value (Cathepsin S) is reported as “increased inhibition”.
TWEWVCSLMCS [SEQ ID NO:23] was tested, and the “specificity for cathepsin S over cathepsin L” value (Cathepsin S) was “twice as specific”.
